# Laboratory results from article PMC6009937, “Comparing hydrazine-derived reactive groups as inhibitors of quinone-dependent amine oxidases” (Journal of Enzyme Inhibition and Medicinal Chemistry, 2017).
# “And” between values parts separate entries of the source, which are not always exact repeats. Identical values can stand only once. Like-named read-outs stand apart in the source and are kept apart here.
# Columns and labels:
# [1] = stated in the text without reference; cited from earlier work
# LOX [2] = conditions: literature data reprocessed by Kitz-Wilson analysis, cited from earlier work
# [3] = target: T1, lentil seedling diamine oxidase (LSDAO) (Lens culinaris, UniProt P49252); assay: LSDAO activity assay (Amplex UltraRed/HRP fluorescence) after preincubation of enzyme with inhibitor; type: biochemical
# T1 construct: Eight-day-old lentil seedlings (Lens esculenta) were blended and extracted; from tissue; host or cells: eight-day-old lentil seedlings (Lens esculenta)
# T1 sequence (P49252 19-667): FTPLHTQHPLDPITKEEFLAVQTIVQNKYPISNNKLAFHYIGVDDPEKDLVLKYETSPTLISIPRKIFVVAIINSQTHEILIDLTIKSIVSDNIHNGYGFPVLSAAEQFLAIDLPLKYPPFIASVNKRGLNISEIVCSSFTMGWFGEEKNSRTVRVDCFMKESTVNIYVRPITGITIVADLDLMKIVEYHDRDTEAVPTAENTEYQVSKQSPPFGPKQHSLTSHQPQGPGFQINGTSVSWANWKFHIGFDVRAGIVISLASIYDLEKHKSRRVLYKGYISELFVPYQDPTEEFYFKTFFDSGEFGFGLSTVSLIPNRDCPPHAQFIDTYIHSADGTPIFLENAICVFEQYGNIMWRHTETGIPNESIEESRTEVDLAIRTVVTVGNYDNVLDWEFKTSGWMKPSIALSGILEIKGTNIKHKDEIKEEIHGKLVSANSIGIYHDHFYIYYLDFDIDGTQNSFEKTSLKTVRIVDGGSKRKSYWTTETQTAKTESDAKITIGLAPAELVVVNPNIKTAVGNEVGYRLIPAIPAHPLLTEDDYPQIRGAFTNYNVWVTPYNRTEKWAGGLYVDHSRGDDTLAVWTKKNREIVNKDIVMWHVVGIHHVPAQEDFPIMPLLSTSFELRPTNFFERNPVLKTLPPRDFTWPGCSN
# Method: The LSDAO extraction process was carried out at 4 °C according to the method of Floris et al.[30] with slight modifications. Eight-day-old lentil seedlings (Lens esculenta) were blended and extracted with phosphate buffer (5 mM, pH 6.0, buffer A). Ammonium sulfate (230 g/L, 40% saturation) was used to precipitate contaminants, and then additional ammonium sulfate (125 g/L, 60% saturation) was used to precipitate the LSDAO. The crude precipitate was redissolved, dialyzed against buffer A, applied to a DEAE column, and eluted with buffer A. Active fractions were adjusted to pH 6.5, applied to a CM resin column, and eluted with 5 mM phosphate buffer, pH 6.5. Active fractions were concentrated and the buffer was changed to 10 mM phosphate, pH 7.0 before the protein was applied to a Sephacryl S-300 column and eluted with the same buffer. The concentration of the LSDAO dimer was determined from its absorption at 278 nm in 0.1 M phosphate buffer[31] using a molar extinction coefficient of 2.45 × 10^5 M^−1 cm^−1.
# (§1) The activity assay is adopted from the method described by Palamakumbura et al.[35]. Enzyme and inhibitor were incubated at 37 °C for the desired inhibition time, diluted into the assay mixture, and analyzed by fluorescence (Agilent Technologies Cary Eclipse Fluorescence Spectrometer, Cary Eclipse Software, 37 °C, λex = 568 and λem = 581 nm). The assay was carried out in boric acid buffer (50 mM, pH 8.2) with 1.2 M urea for LOX or in phosphate buffer (0.1 M, pH = 7.0) for LSDAO. The final reagent concentrations in the assay mixture were 10 mM cadaverine, 10 μM Amplex UltraRed (Life Technologies, Carlsbad, CA), and 1 U/mL horse radish peroxidase (Amresco, Solon, OH).
# (§2) The enzyme activity, which is proportional to the rate of increase in fluorescence, was measured for each experiment. Residual activity was calculated by dividing each rate by a maximum rate determined in the absence of inhibitor such that [residual activity] = ([rate with inhibitor] – [baseline rate])/([maximum rate] – [baseline rate]). […] The residual activities from replicate experiments were averaged. For each inhibitor concentration, log([average residual activity]) was plotted against inhibition time. Linear lines of best fit forced through the origin were calculated for each data set using Graphpad Prism 5.0b (La Jolla, CA). For each inhibitor, the slopes of these lines (min^−1) were plotted as –1/slope against 1/[inhibitor concentration] to produce a Kitz–Wilson plot.
# (§3) To quantify the selectivity of each inhibitor, we defined a numerical “selectivity factor” as the inhibitor's IC50 value for LOX divided by its IC50 value for LSDAO (Figure 3(C)).
# From the slopes and y-intercepts of these lines, the kinetic parameters KI (the reversible binding constant) and k2 (the rate constant for irreversible reaction) (Figure 5(A)) can be calculated.
# Lysyl oxidase (LOX) = target: T2, Lysyl oxidase (LOX) (Bos taurus, UniProt P33072); assay: LOX activity assay (Amplex UltraRed/HRP fluorescence) after preincubation of enzyme with inhibitor; type: biochemical, bovine; conditions: for Selectivity factor (LOX IC50 value divided by LSDAO IC50 value): LOX vs LSDAO; for remaining activity at 4 µM: 4 µM inhibitor; for remaining activity at 7 µM: 7 µM inhibitor; for remaining activity at 20 µM: 20 µM inhibitor; for remaining activity at 100 µM: 100 µM inhibitor
# T2 construct: LOX was isolated from bovine aorta; from tissue; host or cells: bovine aorta
# T2 sequence (P33072 170-418): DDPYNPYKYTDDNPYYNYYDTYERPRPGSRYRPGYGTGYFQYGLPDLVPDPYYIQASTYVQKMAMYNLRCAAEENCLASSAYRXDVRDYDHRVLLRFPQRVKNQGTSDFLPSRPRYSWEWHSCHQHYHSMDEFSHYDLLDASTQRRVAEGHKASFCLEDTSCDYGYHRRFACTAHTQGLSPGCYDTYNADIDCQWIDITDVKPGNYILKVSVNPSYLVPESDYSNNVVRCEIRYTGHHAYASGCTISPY
# Method: LOX was isolated from bovine aorta at 4 °C using slight modifications of previously published procedures. All steps were carried out at in 16 mM phosphate, pH 7.8 (buffer B). After blending the aorta in buffer B containing 400 mM NaCl and 1 mM EDTA to remove soluble contaminants, the enzyme was extracted with buffer B containing 4 M urea and 1 mM EDTA. The crude enzyme extract was filtered, diluted with an equal volume of buffer B to obtain a urea concentration of 2 M, and loaded onto a DEAE column. After washing with buffer B containing 400 mM NaCl, the enzyme was eluted with buffer B containing 400 mM NaCl and 6 M urea. The urea concentration was reduced to 4 M by adding buffer B, and the solution was added to a slurry of ceramic hydroxyapatite in buffer B containing 4 M urea. After stirring, the supernatant was removed by filtration and dialyzed overnight against buffer B. The solution was added to a slurry of ceramic hydroxyapatite in buffer B, washed with small portions of 1 M phosphate and then buffer B, and then eluted with buffer B containing 6 M urea and 500 mM NaCl. After concentration to about 20 mL, the protein was applied to a Sephacryl S-200 gel filtration column preequilibrated with buffer B containing 50 mM NaCl, 1 mM EDTA, and 6 M urea and eluted with the same buffer. Active fractions were concentrated to 1 mL. Total protein concentration for 6 M urea solutions[33] was determined by its absorption at 280 nm using a molar extinction coefficient of 8.39 × 10^4 M^−1 cm ^−1.
# as §1, §2, §3
# LOX [4] = tested on: LOX; design: method as in PMID 6131892; conditions: cited from earlier work
# [5] = 10 min, read-out: Average Percent Activity Remaining, LSDAO
# [6] = Kitz-Wilson plot, pH 8.0 and 37 °C
# [7] = 4 min, read-out: Average Percent Activity Remaining, LSDAO
# [8] = Kitz-Wilson analysis, rate constant for irreversible reaction
# [9] = 4 min, read-out: Average Percent Activity Remaining, LOX
# [10] = 10 min, read-out: Average Percent Activity Remaining, LOX
structure (smiles),measurement,setting,value
"NNc1ccccc1 [compound 1, phenylhydrazine, reference compound]",pKa of conjugate acid,[1],5
same,LOX k2 (range),LOX [2],0.32 (0.16 to >10) min^-1 and 0.32 min^-1
same,KI (inactivation),LOX [2]; read-out: LOX KI^-1 (range),13 µM
same,IC50,[3],0.01 µM
same,remaining activity at 0.005 µM,[3]; [5],80%
same,remaining activity at 0.0075 µM,[3]; [5],62%
same,remaining activity at 0.01 µM,[3]; [5],50%
same,remaining activity at 0.015 µM,[3]; [5],13%
same,remaining activity at 0.03 µM,[3]; [5],0%
same,remaining activity at 0.1 µM,[3]; [5],0%
same,remaining activity at 0.5 µM,[3]; [5],0%
same,IC50,Lysyl oxidase (LOX),6 µM
same,Selectivity factor (LOX IC50 value divided by LSDAO IC50 value),Lysyl oxidase (LOX); 10-min preincubation,600
"N#CCCN [compound 2, β-aminopropionitrile]",Inhibition of LOX at 10 μM,"LOX [4]; 10 μM, 2-h incubation",full inhibition
same,IC50,LOX [4]; 2-h incubation,0.2 µM
same,KI (inactivation),LOX [4]; [6],6 µM
same,k2 LOX,LOX [4]; [6],0.16 min⁻¹
CCCCCC(=O)NN [compound 3],IC50,"[3]; 10-min preincubation, 37 °C, read-out: IC50 LSDAO",2 µM
same,remaining activity at 1 µM,[3]; [7],90%
same,remaining activity at 2 µM,[3]; [7],80%
same,remaining activity at 4 µM,[3]; [7],71%
same,remaining activity at 8 µM,[3]; [7],54%
same,remaining activity at 14 µM,[3]; [7],40%
same,remaining activity at 20 µM,[3]; [7],33%
same,remaining activity at 40 µM,[3]; [7],4%
same,remaining activity at 500 µM,[3]; [7],0.7%
same,remaining activity at 1 µM,[3]; [5],76%
same,remaining activity at 2 µM,[3]; [5],52%
same,remaining activity at 4 µM,[3]; [5],33%
same,remaining activity at 8 µM,[3]; [5],13%
same,remaining activity at 14 µM,[3]; [5],8%
same,remaining activity at 20 µM,[3]; [5],4%
same,LSDAO k2 (range),[3]; [8],0.67 (0.37–3.3) min^-1 and 0.7 min^-1 and 0.67 min^-1
same,KI (inactivation),"[3]; Kitz-Wilson analysis, reversible binding constant, read-out: LSDAO KI^-1 (range)",50 µM and 54 µM
same,IC50,"Lysyl oxidase (LOX); 10-min preincubation, 37 °C, read-out: IC50 LOX",20 µM
same,Selectivity factor (LOX IC50 value divided by LSDAO IC50 value),Lysyl oxidase (LOX); 10-min preincubation,10
same,remaining activity at 4 µM,Lysyl oxidase (LOX); [9],93%
same,remaining activity at 7 µM,Lysyl oxidase (LOX); [9],78%
same,remaining activity at 20 µM,Lysyl oxidase (LOX); [9],69%
same,remaining activity at 100 µM,Lysyl oxidase (LOX); [9],27%
same,remaining activity at 500 µM,"Lysyl oxidase (LOX); 4 min, 500 µM inhibitor, read-out: Average Percent Activity Remaining, LOX",8%
same,remaining activity at 4 µM,Lysyl oxidase (LOX); [10],84%
same,remaining activity at 7 µM,Lysyl oxidase (LOX); [10],75%
same,remaining activity at 20 µM,Lysyl oxidase (LOX); [10],48%
same,remaining activity at 100 µM,Lysyl oxidase (LOX); [10],3%
same,LOX k2 (range),Lysyl oxidase (LOX); [8],0.40 (0.23–1.4) min^-1 and 0.4 min^-1 and 0.40 min^-1
same,KI (inactivation),"Lysyl oxidase (LOX); Kitz-Wilson analysis, reversible binding constant, read-out: LOX KI^-1 (range)",200 µM
same,fold lower affinity for LOX than phenylhydrazine,Lysyl oxidase (LOX); compared to phenylhydrazine,3 fold
